Data set [1] addresses DAT (Rattus norvegicus, UniProt P23977). Nature of the data set: DAT binding assay, [3H]WIN 35,428, rat striatal membranes. As to conditions: 8c vs 10a, 9c vs 11a.
Data set [2] has as its system mice. Nature of the data set: Locomotor activity studies in mice. As to conditions: for locomotion: i.p.
For data set [3], the target named is Dopamine D2 receptor Gi1 activation (Homo sapiens, UniProt P14416). In kind it is cell-based.
Data set [4] concerns the target NET (Rattus norvegicus, UniProt Q63380). Nature of the data set: NET binding assay, [3H]nisoxetine, rat frontal cortex membranes.
Data set [5] can be described thus: Mouse microsomal stability assay. It counts as in vitro ADME. The settings on record: mouse liver microsomes. In general terms: Liver microsomes are vesicles of endoplasmic reticulum, rich in cytochrome P450 enzymes.
The conditions of data set [6]: introductory statement, no reference given; cited from earlier work.

Each structure is given as a SMILES string. Where only a bound is given, the exact number is not on record here.

Chain of NET (Q63380 1-617): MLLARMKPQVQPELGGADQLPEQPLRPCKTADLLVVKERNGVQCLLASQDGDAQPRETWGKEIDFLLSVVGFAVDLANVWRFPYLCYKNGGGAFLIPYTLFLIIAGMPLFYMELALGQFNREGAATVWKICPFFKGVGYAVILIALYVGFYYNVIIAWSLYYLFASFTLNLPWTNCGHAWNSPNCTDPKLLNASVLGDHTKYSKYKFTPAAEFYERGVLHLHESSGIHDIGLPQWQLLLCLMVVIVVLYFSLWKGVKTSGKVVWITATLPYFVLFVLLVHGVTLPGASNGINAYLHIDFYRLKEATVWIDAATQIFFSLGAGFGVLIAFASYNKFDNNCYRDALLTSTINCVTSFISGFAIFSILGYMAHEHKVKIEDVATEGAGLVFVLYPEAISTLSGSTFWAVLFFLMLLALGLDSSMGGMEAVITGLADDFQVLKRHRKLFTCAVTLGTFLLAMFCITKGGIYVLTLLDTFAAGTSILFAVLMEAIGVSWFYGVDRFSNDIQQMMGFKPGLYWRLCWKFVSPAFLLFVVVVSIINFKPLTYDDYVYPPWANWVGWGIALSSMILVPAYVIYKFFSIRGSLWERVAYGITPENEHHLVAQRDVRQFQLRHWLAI
Chain of Dopamine D2 receptor Gi1 activation (P14416 whole entry): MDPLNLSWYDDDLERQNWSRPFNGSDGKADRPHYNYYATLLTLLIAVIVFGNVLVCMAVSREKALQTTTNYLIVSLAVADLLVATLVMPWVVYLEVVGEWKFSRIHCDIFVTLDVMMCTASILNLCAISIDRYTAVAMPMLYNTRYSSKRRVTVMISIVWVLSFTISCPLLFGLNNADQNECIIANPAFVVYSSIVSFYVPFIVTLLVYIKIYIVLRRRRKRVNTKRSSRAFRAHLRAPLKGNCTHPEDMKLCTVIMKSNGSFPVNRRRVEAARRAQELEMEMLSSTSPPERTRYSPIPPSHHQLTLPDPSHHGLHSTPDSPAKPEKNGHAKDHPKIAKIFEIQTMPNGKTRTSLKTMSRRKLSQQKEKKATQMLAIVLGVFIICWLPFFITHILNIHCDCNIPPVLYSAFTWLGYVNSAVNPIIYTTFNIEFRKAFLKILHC
Chain of DAT (P23977 whole entry): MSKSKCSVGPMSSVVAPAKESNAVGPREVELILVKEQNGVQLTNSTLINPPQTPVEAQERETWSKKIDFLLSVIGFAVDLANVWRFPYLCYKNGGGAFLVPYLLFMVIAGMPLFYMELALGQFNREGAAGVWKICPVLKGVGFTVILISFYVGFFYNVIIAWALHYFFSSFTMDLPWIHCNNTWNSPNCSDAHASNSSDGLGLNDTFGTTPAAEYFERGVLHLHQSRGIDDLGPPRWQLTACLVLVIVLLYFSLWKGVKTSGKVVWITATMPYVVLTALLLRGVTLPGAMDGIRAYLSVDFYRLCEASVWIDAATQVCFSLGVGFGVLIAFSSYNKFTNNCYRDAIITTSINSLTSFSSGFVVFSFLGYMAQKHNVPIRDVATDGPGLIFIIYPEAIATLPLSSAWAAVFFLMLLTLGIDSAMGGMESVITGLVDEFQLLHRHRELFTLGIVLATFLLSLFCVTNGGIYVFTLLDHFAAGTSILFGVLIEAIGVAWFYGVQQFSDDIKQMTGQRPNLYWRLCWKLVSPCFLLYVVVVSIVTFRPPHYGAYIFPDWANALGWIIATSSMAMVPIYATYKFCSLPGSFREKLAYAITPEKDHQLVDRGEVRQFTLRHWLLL

For the compound `CC(O)CN1CCN(CCSC(c2ccccc2)c2ccccc2)CC1` (centres unmarked) [Compound 8c, 1-(4-(2-(Benzhydrylthio)ethyl)piperazin-1-yl)propan-2-ol], the “fold decrease in DAT affinity on removal of the phenyl group” value in data set [1] came out at 25 fold. With `COC(=O)[C@H]1[C@@H](OC(=O)c2ccccc2)C[C@@H]2CC[C@H]1N2C` [cocaine, reference compound], the locomotion entry in data set [2] (mice, 3, 10 mg/kg) is “robust dose-dependent increase in locomotion”.

By IC50 is commonly meant the concentration needed to halve the response being measured. With `NC(=O)C[S@@+]([O-])C(c1ccccc1)c1ccccc1` [(R)-2, reference compound], the locomotion result in data set [2] (mice, 10 mg/kg) is given as “very mild increase”; in data set [2] (mice, 30 mg/kg) it was “significant dose-dependent increase in locomotion”. The compound also displayed an IC50 in data set [3] of more than 10 µM. By Ki is commonly meant the equilibrium dissociation constant of an inhibitor or competing ligand from its target. A high value points to lower affinity. As to `CC(O)CN1CCN(C(=O)C[S+]([O-])C(c2cccc(Cl)c2)c2cccc(Cl)c2)CC1` (centres unmarked) [Compound 14g, 2-((Bis(3-chlorophenyl)methyl)sulfinyl)-1-(4-(2-hydroxypropyl)piperazin-1-yl)ethan-1-one], the Ki in data set [4] is more than 50 µM. Consider `[O-][S+](CCN1CCN(Cc2ccc(F)cc2)CC1)C(c1ccc(F)cc1)c1ccc(F)cc1` (centres unmarked) [Compound 9f, 1-(2-((Bis(4-fluorophenyl)methyl)sulfinyl)ethyl)-4-(4-fluorobenzyl)piperazine], for which the Ki in data set [4] was more than 50 µM. Also, the “time in which metabolized” value in data set [5] is on record as less than 30 min. As for `O=C(C[S+]([O-])C(c1ccc(F)cc1)c1ccc(F)cc1)N1CCN(Cc2ccc(F)cc2)CC1` (centres unmarked) [Compound 14e, 2-((Bis(4-fluorophenyl)methyl)sulfinyl)-1-(4-(4-fluorobenzyl)piperazin-1-yl)ethan-1-one], in data set [5], the “time in which metabolized” value is less than 30 min. In the case of `CCc1cc(Cl)c(OC)c(C(=O)NC[C@@H]2CCCN2CC)c1O` [eticlopride], 0.0021 ± 0.0008 µM corresponded to half-maximal inhibition in data set [3] (IC50).

For `CC(O)CN1CCN(C(=O)CSC(c2cccc(Cl)c2)c2cccc(Cl)c2)CC1` (centres unmarked) [Compound 13g, 2-((Bis(3-chlorophenyl)methyl)thio)-1-(4-(2-hydroxypropyl)piperazin-1-yl)ethan-1-one], in data set [4], the Ki is more than 50 µM. In turn, `CC(O)CN1CCN(CC[S+]([O-])C(c2cccc(Cl)c2)c2cccc(Cl)c2)CC1` (centres unmarked) [Compound 9i, 1-(4-(2-((Bis(3-chlorophenyl)methyl)sulfinyl)ethyl)piperazin-1-yl)propan-2-ol] registered a Ki in data set [4] of more than 50 µM. `[O-][S+](CCN1CCN(Cc2ccc(C(F)(F)F)cc2)CC1)C(c1ccc(F)cc1)c1ccc(F)cc1` (centres unmarked) [Compound 9g, 1-(2-((Bis(4-fluorophenyl)methyl)sulfinyl)ethyl)-4-(4-(trifluoromethyl)benzyl)piperazine] gave a Ki in data set [4] of more than 50 µM. Besides, the “time in which metabolized” value in data set [5] was less than 30 min. For the compound `Fc1ccc(C(SCCNCCCc2ccccc2)c2ccc(F)cc2)cc1` [Compound 4, N-(2-((bis(4-fluorophenyl)methyl)thio)ethyl)-3-phenylpropan-1-amine], the IC50 in data set [3] was more than 10 µM. On to `[O-][S+](CCN1CCN(CC(O)Cc2ccccc2)CC1)C(c1ccc(F)cc1)c1ccc(F)cc1` (centres unmarked) [Compound 11b, 1-(4-(2-((Bis(4-fluorophenyl)methyl)sulfinyl)ethyl)piperazin-1-yl)-3-phenylpropan-2-ol], for which the “locomotor stimulation compared to cocaine” value was “only moderate locomotor stimulation in mice and was substantially less efficacious than cocaine” in data set [2] (mice); “far less efficacious than cocaine” in data set [2] (mice, listed as 11d). Moreover, the locomotion result in data set [2] (mice, 30 mg/kg) was “significant dose-dependent increase in locomotion”. In the case of `[O-][S+](CCN1CCN(CC(O)Cc2ccccc2)CC1)C(c1ccccc1)c1ccccc1` (centres unmarked) [Compound 11a, 1-(4-(2-(Benzhydrylsulfinyl)ethyl)piperazin-1-yl)-3-phenylpropan-2-ol], the “time in which metabolized” value in data set [5] is less than 30 min. For the compound `NC(=O)C[S+]([O-])C(c1ccccc1)c1ccccc1` (centres unmarked) [Compound 2, 2-[(diphenylmethyl)sulfinyl]acetamide], the water solubility result in data set [6] is given as “essentially insoluble in water”. On to `CC(O)CN1CCN(C(=O)CSC(c2ccc(F)cc2)c2ccc(F)cc2)CC1` (centres unmarked) [Compound 13c, 2-((Bis(4-fluorophenyl)methyl)thio)-1-(4-(2-hydroxypropyl)piperazin-1-yl)ethan-1-one], for which the “time in which metabolized” value in data set [5] was less than 30 min.

Turning to `O=C(C[S+]([O-])C(c1ccc(F)cc1)c1ccc(F)cc1)N1CCN(CCCc2ccccc2)CC1` (centres unmarked) [Compound 14b, 2-((Bis(4-fluorophenyl)methyl)sulfinyl)-1-(4-(3-phenylpropyl)piperazin-1-yl)ethan-1-one], the “time in which metabolized” value in data set [5] is recorded as less than 30 min. On to `CC(O)CN1CCN(CC[S+]([O-])C(c2ccccc2)c2ccccc2)CC1` (centres unmarked) [Compound 9c, 1-(4-(2-(Benzhydrylsulfinyl)ethyl)piperazin-1-yl)propan-2-ol], for which, in data set [1], the “fold decrease in DAT affinity on removal of the phenyl group” value is on record as 187 fold. `[O-][S+](CCN1CCN(Cc2ccc(Cl)cc2)CC1)C(c1ccc(F)cc1)c1ccc(F)cc1` (centres unmarked) [Compound 9h, 1-(2-((Bis(4-fluorophenyl)methyl)sulfinyl)ethyl)-4-(4-chlorobenzyl)piperazine]: the Ki in data set [4] was more than 50 µM. Also, in data set [5], the “time in which metabolized” value is less than 30 min. In turn, `CCCCN1C2CCC1CC(OC(c1ccc(F)cc1)c1ccc(F)cc1)C2` (centres unmarked) [Compound 3, 3-(bis(4-fluorophenyl)methoxy)-8-butyl-8-azabicyclo[3.2.1]octane] gave an IC50 in data set [3] of 2 ± 0.73 µM.
